Patent US6534289B1, “Nucleic acids encoding mGLuR/CaR chimera” (NPS Pharmaceuticals, Inc., priority 1995, dated 2003)

Assays:
[1] = molecular target: T1, human CaR (Homo sapiens, UniProt P41180); assay: Xenopus oocyte voltage clamp, Cl− currents, CaR; assay type: cell-based
T1 construct: expressed in transfected cells; host or cells: Xenopus laevis oocytes injected with in vitro transcribed RNA from phPCaR4.0
T1 sequence (P41180 20-1078): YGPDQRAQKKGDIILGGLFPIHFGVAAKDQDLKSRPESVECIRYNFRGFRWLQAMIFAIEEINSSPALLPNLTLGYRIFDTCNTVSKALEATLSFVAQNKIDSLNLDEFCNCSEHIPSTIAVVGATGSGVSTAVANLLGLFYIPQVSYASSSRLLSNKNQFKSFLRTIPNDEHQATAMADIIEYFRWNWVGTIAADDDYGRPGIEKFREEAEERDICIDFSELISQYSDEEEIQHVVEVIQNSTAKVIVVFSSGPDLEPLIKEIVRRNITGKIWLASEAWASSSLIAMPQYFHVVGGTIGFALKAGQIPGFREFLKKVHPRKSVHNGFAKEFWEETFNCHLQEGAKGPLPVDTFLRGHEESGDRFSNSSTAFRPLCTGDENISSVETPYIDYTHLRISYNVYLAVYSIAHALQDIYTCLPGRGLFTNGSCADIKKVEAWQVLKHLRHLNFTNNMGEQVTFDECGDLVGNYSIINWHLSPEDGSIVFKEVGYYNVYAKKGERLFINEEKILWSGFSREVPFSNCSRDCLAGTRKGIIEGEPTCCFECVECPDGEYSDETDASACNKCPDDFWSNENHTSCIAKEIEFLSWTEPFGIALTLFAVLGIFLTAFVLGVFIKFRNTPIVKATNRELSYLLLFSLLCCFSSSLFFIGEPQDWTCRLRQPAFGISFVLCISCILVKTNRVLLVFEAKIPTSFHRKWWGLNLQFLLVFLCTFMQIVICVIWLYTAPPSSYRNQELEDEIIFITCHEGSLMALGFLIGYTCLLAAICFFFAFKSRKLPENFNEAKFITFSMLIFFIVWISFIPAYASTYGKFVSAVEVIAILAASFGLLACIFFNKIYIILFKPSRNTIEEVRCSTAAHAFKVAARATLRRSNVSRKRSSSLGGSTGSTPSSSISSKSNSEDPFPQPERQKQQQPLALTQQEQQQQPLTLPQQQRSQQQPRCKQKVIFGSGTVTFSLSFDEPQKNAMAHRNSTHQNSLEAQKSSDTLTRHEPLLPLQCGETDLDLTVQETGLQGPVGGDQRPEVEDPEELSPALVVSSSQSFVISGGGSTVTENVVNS

[2] = tested on: HEK293 cells expressing pCEPCaR/R1; assay: HEK293/pCEPCaR/R1 Fura assay; assay type: cell-based, human; details: fura-2 loaded stably transfected HEK293 cells, FIG. 9
Experimental: The DNA from plasmid pCaR/R1 was digested and cloned into the commercially available episomal mammalian expression vector, pCEP4 (Invitrogen), using the restriction enzymes Kpn I and Not I. The ligation products were transfected into DH5a cells which had been made competent for DNA transformation. […] A clone was selected from the colonies which grew. This clone, pCEPCaR/R1 was characterized by restriction enzyme digestion.
Human embryonic kidney cells (293, ATCC, CRL 1573) were grown in a routine manner. Cells were plated in 10 cm cell-culture plates in Dulbecco's modified Eagle's medium (D-MEM) containing 10% fetal calf serum (FCS) and 1×Penicillin-Streptomycin (PS, Life Technologies) so that they would be ˜70% confluent after an overnight incubation. […]
Measurements of intracellular calcium release in response to increases in extracellular calcium is quantitated using the Fura assay (Parks et al. 1989). […] Measurements of fluorescence are performed at 37° C. with constant stirring using a custom-built spectrofluorimeter (Biomedical Instrumentation Group, University of Pennsylvania). […] To calibrate fluorescence signals, digitonin (Sigma, St. Louis, Mo.; catalog # D 5628; 50 μg/ml, final) is added to obtain Fmax, and the apparent Fmin is determined by adding EGTA (10 mM, final) and Tris base (pH ˜10, final). […]

[3] = molecular target: T2, mGluR1/CaR (UniProt P23385+P41180); assay: Xenopus oocyte voltage clamp, Cl− currents, mGluR1/CaR chimera; assay type: cell-based, rat mGluR1 / human calcium receptor; details: FIG. 6
T2 construct: expressed in transfected cells; host or cells: Xenopus laevis oocytes injected with in vitro transcribed RNA
T2 sequence (P23385+P41180 fused): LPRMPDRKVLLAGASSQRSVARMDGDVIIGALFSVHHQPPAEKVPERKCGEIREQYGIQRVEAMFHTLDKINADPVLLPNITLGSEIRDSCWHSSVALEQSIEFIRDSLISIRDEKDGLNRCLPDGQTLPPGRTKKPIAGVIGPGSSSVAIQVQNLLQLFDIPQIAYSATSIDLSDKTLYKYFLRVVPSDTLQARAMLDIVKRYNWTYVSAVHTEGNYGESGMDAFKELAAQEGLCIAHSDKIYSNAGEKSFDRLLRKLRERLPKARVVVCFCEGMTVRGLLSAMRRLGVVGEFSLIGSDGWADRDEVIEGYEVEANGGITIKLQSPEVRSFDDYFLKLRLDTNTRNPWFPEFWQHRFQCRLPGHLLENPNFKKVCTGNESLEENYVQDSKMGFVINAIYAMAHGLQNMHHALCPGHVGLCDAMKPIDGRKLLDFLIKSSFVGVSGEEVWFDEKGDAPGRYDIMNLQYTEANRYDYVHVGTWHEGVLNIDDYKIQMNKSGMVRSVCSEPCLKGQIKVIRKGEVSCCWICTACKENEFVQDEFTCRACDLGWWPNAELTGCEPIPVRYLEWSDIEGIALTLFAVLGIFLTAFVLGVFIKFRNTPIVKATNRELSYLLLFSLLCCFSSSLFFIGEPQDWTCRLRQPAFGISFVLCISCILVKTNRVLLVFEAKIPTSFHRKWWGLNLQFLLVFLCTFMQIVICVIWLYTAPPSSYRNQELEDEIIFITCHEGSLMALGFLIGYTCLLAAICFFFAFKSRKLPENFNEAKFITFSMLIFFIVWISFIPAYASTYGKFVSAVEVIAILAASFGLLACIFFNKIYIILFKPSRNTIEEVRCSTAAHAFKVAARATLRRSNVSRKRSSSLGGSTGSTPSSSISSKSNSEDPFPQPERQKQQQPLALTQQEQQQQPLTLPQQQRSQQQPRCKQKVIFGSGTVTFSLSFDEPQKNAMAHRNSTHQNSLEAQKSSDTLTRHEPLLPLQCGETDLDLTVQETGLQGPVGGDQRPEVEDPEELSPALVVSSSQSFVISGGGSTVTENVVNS

[Ca+2] [calcium]
activation of CaR, response amplitudes (Cl− currents in response to increases in intracellular Ca^2+) ([1]; Xenopus oocyte, increasing extracellular calcium, FIG. 7): activation | intracellular calcium [2]: increases in intracellular calcium

N[C@@H](CCC(=O)O)C(=O)O [l-glutamate]
Cl− current ([1]; Xenopus oocytes injected with human CaR RNA, FIG. 8B): elicits oscillatory increases in Cl− current

N[C@@H](Cn1oc(=O)[nH]c1=O)C(=O)O [quisqualate]
activation of mGluR1/CaR as measured by Cl− currents generated in response to the release of intracellular Ca^2+ [3]: activation
